Experimental data reported in US7384931B2, “Constrained compounds as CGRP-receptor antagonists” (Bristol-Myers Squibb Company, priority 2004, dated 2008).

Target: CGRP receptor (Homo sapiens, UniProt O60894+Q16602)
Test: CGRP radioligand binding assay ([125I]-CGRP displacement, SK-N-MC homogenate)
Parameters: endogenous in cells; host or cells: SK-N-MC cells (homogenate/membrane pellet)
Settings: displacement of [125I]-CGRP, room temperature 2 h
Method: CGRP Binding Assay. Tissue Culture. SK—N-MC cells were grown at 37° C. in 5% CO2 as a monolayer in medium consisting of MEM with Earle's salts and L-glutamine (Gibco) supplemented with 10% fetal bovine serum (Gibco). Cell Pellets. The cells were rinsed twice with phosphate-buffered saline (155 mM NaCl, 3.3 mM Na2HPO4, 1.1 mM KH2PO4, pH 7.4), and incubated for 5-10 min. at 4° C. in hypotonic lysis buffer consisting of 10 mM Tris (pH 7.4) and 5 mM EDTA. The cells were transferred from plates to polypropylene tubes (16×100 mm) and homogenized using a polytron. Homogenates were centrifuged at 32,000×g for 30 min. The pellets were resuspended in cold hypotonic lysis buffer with 0.1% mammalian protease inhibitor cocktail (Sigma) and assayed for protein concentration. The SK—N-MC homogenate was then aliquoted and stored at −80° C. until needed.
Radioligand Binding Assay. The compounds of invention were solubilized and carried through serial dilutions using 100% DMSO. Aliquots from the compound serial dilutions were further diluted 25 fold into assay buffer (50 mM Tris-Cl pH 7.5, 5 mM MgCl2, 0.005% Triton X-100) and transferred (volume 50 μl) into 96 well assay plates. [^125I]-CGRP (Amersham Biosciences) was diluted to 60 pM in assay buffer and a volume of 50 μl was added to each well. SK—N-MC pellets were thawed, diluted in assay buffer with fresh 0.1% mammalian protease inhibitor cocktail (Sigma), and homogenized again. SK—N-MC homogenate (5 μg/well) was added in a volume of 100 μl. The assay plates were then incubated at room temperature for 2 h. Assays were stopped by addition of excess cold wash buffer (20 mM Tris-Cl pH 7.5, 0.1% BSA) immediately followed by filtration over glass fiber filters (Whatman GF/B) previously soaked in 0.5% PEI. Non-specific binding was defined with 1 μM beta-CGRP. Protein bound radioactivity was determined using a gamma or scintillation counter. The IC50 was defined as the concentration of a compound of invention required to displace 50% of radioligand binding.

Chain of CGRP receptor (Q16602 23-461): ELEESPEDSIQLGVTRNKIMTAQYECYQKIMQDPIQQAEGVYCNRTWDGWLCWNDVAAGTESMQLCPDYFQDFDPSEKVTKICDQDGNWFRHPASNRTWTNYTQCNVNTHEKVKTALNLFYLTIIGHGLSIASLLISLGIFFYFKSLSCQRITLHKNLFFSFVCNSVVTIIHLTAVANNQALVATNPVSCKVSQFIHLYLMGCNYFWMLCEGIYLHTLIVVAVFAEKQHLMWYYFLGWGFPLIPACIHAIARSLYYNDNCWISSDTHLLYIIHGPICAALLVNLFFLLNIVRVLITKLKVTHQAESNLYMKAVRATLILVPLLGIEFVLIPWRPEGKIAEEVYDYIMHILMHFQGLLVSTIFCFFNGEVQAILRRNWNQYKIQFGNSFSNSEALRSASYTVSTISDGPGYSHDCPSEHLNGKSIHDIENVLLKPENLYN
Chain of CGRP receptor (O60894 27-148): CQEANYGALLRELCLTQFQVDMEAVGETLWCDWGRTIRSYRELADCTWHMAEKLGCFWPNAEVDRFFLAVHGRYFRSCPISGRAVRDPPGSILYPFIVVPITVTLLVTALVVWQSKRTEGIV

Work on `CC(C)(C)CN1Cc2c(cc(Cl)c3[nH]ncc23)C[C@@H](CC(=O)Nc2ccc3c(c2)CCC2(C3)NC(=O)NC2=O)C1=O` (mixture of isomers) [Example 86, (±)-1-[[(7S)-4-chloro-9-(2,2-dimethylpropyl)-3,6,7,8,9,10-hexahydro-8-oxoazepino[3,4-e]indazol-7-yl]yacetyl]-Amino-3′,4′-dihydro-^1H-spiro[imidazolidine-4,2′naphthalene]-2,5-dione] yielded an IC50 of 0.0001 to 0.01 µM.

`CC(C)(C)CN1Cc2c(cc(Cl)c3[nH]ncc23)C[C@@H](CC(=O)Nc2ccc3c(c2)CC2(C3)NC(=O)NC2=O)C1=O` (mixture of isomers) [Example 87, (±)-1-[[(7S)-4-chloro-9-(2,2-dimethylpropyl)-3,6,7,8,9,10-hexahydro-8-oxoazepino[3,4-e]indazol-7-yl]acetyl]-Amino-spiro[imidazolidine-4,2′-indane]-2,5-dione] was tested, and the IC50 was 0.01 to 0.1 µM.

`CN1Cc2c(ccc3[nH]ncc23)C[C@@H](NC(=O)N2CCC(N3Cc4ccccc4NC3=O)CC2)C1=O` [Example 2, 4-(2-Oxo-1,4-dihydro-2H-quinazolin-3-yl)-piperidine-1-carboxylic acid (9-methyl-8-oxo-3,6,7,8,9,10-hexahydro-2,3,9-triaza-(R)-cyclohepta[e]inden-7-yl)-amide] gave an IC50 of 0.1 to 1 µM.

For `O=C(N[C@@H]1Cc2ccc3[nH]ncc3c2CN(CCN2CCCCC2)C1=O)N1CCC(N2Cc3ccccc3NC2=O)CC1` [Example 3, 4-(2-Oxo-1,4-dihydro-2H-quinazolin-3-yl)-piperidine-1-carboxylic acid [8-oxo-9-(2-piperidin-1-yl-ethyl)-3,6,7,8,9,10-hexahydro-2,3,9-triaza-(R)-cyclohepta[e]inden-7-yl]-amide], the IC50 was 0.1 to 1 µM.

In the case of `O=C(N[C@@H]1Cc2ccc3[nH]ncc3c2CN(CCN2CCCC2)C1=O)N1CCC(N2Cc3ccccc3NC2=O)CC1` [Example 4, 4-(2-Oxo-1,4-dihydro-2H-quinazolin-3-yl)-piperidine-1-carboxylic acid [8-oxo-9-(2-pyrrolidin-1-yl-ethyl)-3,6,7,8,9,10-hexahydro-2,3,9-triaza-(R)-cyclohepta[e]inden-7-yl]-amide], the IC50 is reported as 0.1 to 1 µM.

Molecule `CN(C)CCN1Cc2c(ccc3[nH]ncc23)C[C@@H](NC(=O)N2CCC(N3Cc4ccccc4NC3=O)CC2)C1=O` [Example 5, 4-(2-Oxo-1,4-dihydro-2H-quinazolin-3-yl)-piperidine-1-carboxylic acid [9-(2-dimethylamino-ethyl)-8-oxo-3,6,7,8,9,10-hexahydro-2,3,9-triaza-(R)-cyclohepta[e]inden-7-yl]-amide] has an IC50 of 0.1 to 1 µM.

For `O=C1Nc2ccccc2C2(CCN(C(=O)N[C@@H]3Cc4ccc5[nH]ncc5c4CN(CCN4CCOCC4)C3=O)CC2)N1` [Example 8, ′H-Spiro[piperidine-4,4′-quinazolin]-2′(3′H)-one-1-carboxylic acid [9-(2-morpholin-4-yl-ethyl)-8-oxo-3,6,7,8,9,10-hexahydro-2,3,9-triaza-(R)-cyclohepta[e]inden-7-yl]-amide], the IC50 was > 1 µM.

Work on `C[C@@H](c1ccccc1)N1Cc2c(ccc3[nH]ncc23)C[C@@H](NC(=O)N2CCC3(CC2)NC(=O)Nc2ccccc23)C1=O` [Example 9, ′^1H-Spiro[piperidine-4,4′-quinazolin]-2′(3′H)-one-1-carboxylic acid [8-oxo-9-(1-(S)-phenyl-ethyl)-3,6,7,8,9,10-hexahydro-2,3,9-triaza-(R)-cyclohepta[e]inden-7-yl]-amide] yielded an IC50 of 0.1 to 1 µM.

For `O=C(N[C@@H]1Cc2ccc3[nH]ncc3c2CN(Cc2ccc(C(F)(F)F)cc2)C1=O)N1CCC(N2Cc3ccccc3NC2=O)CC1` [Example 13, 4-(2-Oxo-1,4-dihydro-2H-quinazolin-3-yl)-piperidine-1-carboxylic acid [8-oxo-9-(4-trifluoromethyl-benzyl)-3,6,7,8,9,10-hexahydro-2,3,9-triaza-(R)-cyclohepta[e]inden-7-yl]-amide], the IC50 was 0.01 to 0.1 µM.
